Measurements taken from patent US9139532B2, “Pyrazolyl guanidine F1F0-atpase inhibitors and therapeutic uses thereof” (Lycera Corporation, priority 2010, dated 2015).
Where two headings read alike, the source gives them in different places.

Columns and labels:
[1] = molecular target: T1, F1F0-ATPase (Bos taurus, UniProt P13621); test: Inhibition of F1F0-ATPase activity in synthesizing ATP; format: biochemical; conditions: inhibition of ATP synthesis by F1F0-ATPase; read-out: ATP Syn IC50
T1 construct: from tissue

[2] = test system: Ramos cells; test: Cytotoxicity in Ramos cells; format: cell-based; conditions: cytotoxicity in Ramos cells, read-out: Ramos Cell EC50

Row | SMILES | IC50 [1] [µM] | EC50 ([2]; Homo sapiens) [µM] | EC50 [2] [µM]
1 | Cc1ccc(-c2cc(NC(=NC(=O)c3ccc(Cl)c(F)c3)NC(C)(C)C)[nH]n2)cc1 [Compound A-470] | < 10 | > 10 | 
2 | CC(C)(C)NC(=NC(=O)c1ccc(C(F)(F)F)cc1)Nc1cc(-c2cccc(Cl)c2)[nH]n1 [Compound A-439] | < 10 | < 10 | 
3 | CCOCCCN/C(=N/C(=O)c1ccc(C(F)(F)F)cc1)Nc1cc(-c2cc(F)cc(F)c2)n[nH]1 [Compound A-282] | < 10 |  | < 10
4 | O=C(N=C(Nc1cc(-c2ccc(F)cc2)n[nH]1)NC1CCCC1)c1ccc(Cl)cc1 [Compound A-248] | < 10 | < 10 | 
5 | COCC(C)NC(=NC(=O)c1cccc(OC)c1)Nc1cc(C(F)(F)F)n[nH]1 (stereo not drawn) [Compound A-537] | < 10 | < 10 | 
6 | CNC(=O)c1cc(NC(=NC(=O)c2ccc(C(F)(F)F)cc2)Nc2ccc(F)cc2Cl)[nH]n1 [Compound A-337] | > 10 | > 10 | 
7 | O=C(/N=C(/NCc1ccc(F)cc1Cl)Nc1cc(-c2ccc(Cl)cc2)n[nH]1)c1ccc(C(F)(F)F)cc1 [Compound A-445] | < 10 |  | < 10
8 | COc1ccc(-c2cc(N/C(=N\C(=O)c3ccc(F)c(F)c3)NCc3ccc(F)cc3Cl)[nH]n2)cc1 [Compound A-476] | < 10 |  | > 10
9 | COC[C@H](C)N/C(=N/C(=O)c1ccc(Cl)cc1)Nc1cc(-c2ccc(F)cc2)n[nH]1 [Compound A-272] | < 10 | < 10 | 
10 | O=C(/N=C(\Nc1cc(C(F)(F)F)[nH]n1)NC1CCC(F)(F)CC1)c1ccc(C(F)(F)F)cc1 [Compound A-561] | < 10 |  | < 10
11 | CC(C)CN/C(=N/C(=O)c1ccc(C(F)(F)F)cc1)Nc1cc(-c2cc(F)cc(F)c2)n[nH]1 [Compound A-293] | < 10 |  | < 10
12 | CC(C)(C)NC(=NC(=O)c1ccc(Cl)cc1)Nc1cc(-c2ccc(Cl)cc2)n[nH]1 [Compound A-132] | < 10 | < 10 | 
13 | CCC(C)CN/C(=N/C(=O)c1ccc(F)c(F)c1)Nc1cc(-c2ccc(C)c(F)c2)n[nH]1 (stereo not drawn) [Compound A-321] | < 10 |  | < 10
14 | O=C(/N=C(/Nc1cc(F)cc(Cl)c1)Nc1cc(-c2ccc(F)cc2)n[nH]1)c1ccc(Cl)cc1 [Compound A-455] | < 10 |  | < 10
15 | CC1(C)Cn2nc(-c3ccc(F)cc3)cc2N/C(=N\C(=O)c2ccc(F)cc2)N1 [Compound A-568, (Z)-4-fluoro-N-(8-(4-fluorophenyl)-4,4-dimethyl-4,5-dihydro-1H-pyrazolo[1,5-a][1,3,5]triazepin-2(3H)-ylidene)benzamide] | < 10 | < 10 | 
16 | Cc1cc(C(=O)/N=C(/NCc2ccc(F)cc2Cl)Nc2cc(C(F)(F)F)[nH]n2)ccn1 [Compound A-86] | < 10 | > 10 | 
17 | CC(C)(C)N/C(=N/C(=O)c1ccc(Cl)c(F)c1)Nc1cc(C(F)(F)F)[nH]n1 [Compound A-40] | < 10 | < 10 | 
18 | Cc1ccc(-c2cc(N/C(=N\C(=O)c3ccc(F)c(F)c3)Nc3cc(F)cc(Cl)c3)n[nH]2)cc1F [Compound A-126] | > 10 |  | > 10
19 | COCC(C)NC(=NC(=O)c1ccc(F)c(F)c1)Nc1cc(-c2ccc(Cl)cc2)n[nH]1 (stereo not drawn) [Compound A-376] | < 10 | < 10 | 

Row | SMILES | IC50 [1] [µM] | EC50 ([2]; Homo sapiens) [µM] | EC50 [2] [µM]
20 | O=C(/N=C(\Nc1cc(-c2ccc(F)cc2)n[nH]1)NC1CCCC1)c1cccc(F)c1 [Compound A-388] | < 10 |  | < 10
21 | CC(C)(C)NC(=NC(=O)c1cccc(Cl)c1)Nc1cc(-c2ccc(Cl)cc2)n[nH]1 [Compound A-130] | < 10 | < 10 | 
22 | CC(C)N/C(=N/C(=O)c1ccc(F)c(F)c1)Nc1cc(C(F)F)[nH]n1 [Compound A-63] | < 10 | > 10 | 
23 | Cc1ccc(CN/C(=N/C(=O)c2ccc(F)cc2)Nc2cc(C(F)(F)F)[nH]n2)o1 [Compound A-414] | < 10 |  | < 10
24 | N#Cc1cccc(C(=O)/N=C(\Nc2cc(-c3ccc(Cl)cc3)n[nH]2)NC2CCC2)c1 [Compound A-307] | < 10 |  | < 10
25 | CC(=O)Nc1cc(C(=O)N=C(Nc2cc(-c3ccc(F)cc3)[nH]n2)NC(C)(C)C)ccn1 [Compound A-485] | > 10 | > 10 | 
26 | O=C(/N=C(\Nc1cc(C(F)(F)F)n[nH]1)NC1CCCOC1)c1ccc(Cl)cc1 (stereo not drawn) [Compound A-110] | < 10 | < 10 | 
27 | CC(C)CN/C(=N/C(=O)c1cccc([S+](C)[O-])c1)Nc1cc(-c2ccc(F)cc2)n[nH]1 (stereo not drawn) [Compound A-566, (Z)—N-(((3-(4-Fluorophenyl)-1H-pyrazol-5-yl)amino)(isobutylamino)methylene)-3-(methylsulfinyl)benzamide] | < 10 | < 10 | 
28 | Cc1cc(C(=O)N=C(Nc2cc(-c3ccc(F)cc3)n[nH]2)NC(C)(C)C)ccc1F [Compound A-556] | < 10 | < 10 | 
29 | CC(C)C(C)NC(=NC(=O)c1ccc(Cl)c(F)c1)Nc1cc(-c2cc(F)cc(F)c2)n[nH]1 (stereo not drawn) [Compound A-351] | < 10 | < 10 | 
30 | CCc1ccc(-c2cc(N/C(=N\C(=O)c3ccc(C(F)(F)F)cc3)NC(C)(C)C)[nH]n2)cc1 [Compound A-432] | < 10 |  | > 10
31 | Cc1cc(NC(=NC(=O)c2ccc(Cl)c(F)c2)NCCC(F)(F)F)[nH]n1 [Compound A-179] | > 10 | > 10 | 
32 | CCOCC(C)NC(=NC(=O)c1ccc(F)c(F)c1)Nc1cc(-c2ccc(F)cc2)n[nH]1 (stereo not drawn) [Compound A-263] | < 10 |  | < 10
33 | CC(C)CN/C(=N/C(=O)c1ccc(F)c(F)c1)Nc1cc(-c2ccc(Cl)cc2)n[nH]1 [Compound A-377] | < 10 |  | < 10
34 | O=C(/N=C(/NCc1ccc(F)cc1Cl)Nc1cc(-c2ccc(F)cc2)n[nH]1)c1cccc(C(F)(F)F)c1 [Compound A-449] | < 10 |  | < 10
35 | CC(C)(C)N/C(=N/C(=O)c1ccc(F)c(F)c1)Nc1cc(-c2ccc(Cl)cc2)[nH]n1 [Compound A-137] | < 10 |  | < 10
36 | O=C(N=C(NCc1ccc(F)cc1Cl)Nc1cc(-c2ccc(F)cc2)n[nH]1)c1ccc(F)cc1 [Compound A-460] | < 10 | < 10 | 
37 | O=C(/N=C(/NCc1ccccc1C(F)(F)F)Nc1cc(C(F)(F)F)n[nH]1)c1ccc(Cl)cc1 [Compound A-9] | < 10 | < 10 | 
38 | COc1ccc(C(=O)/N=C(\Nc2cc(-c3ccc(F)cc3)[nH]n2)NC(C)(C)C)cc1 [Compound A-539] | < 10 |  | < 10

Row | SMILES | IC50 [1] [µM] | EC50 ([2]; Homo sapiens) [µM] | EC50 [2] [µM]
39 | CC(C)(C)N/C(=N/C(=O)c1ccc(C#N)cc1)Nc1cc(-c2ccc(F)cc2)[nH]n1 [Compound A-529] | < 10 |  | > 10
40 | Cc1ccc(-c2cc(NC(=NC(=O)c3ccc(Cl)c(F)c3)NCc3ccc(F)cc3Cl)[nH]n2)cc1 [Compound A-474] | < 10 | > 10 | 
41 | CCC(C)N/C(=N/C(=O)c1ccc(F)c(F)c1)Nc1cc(-c2ccc(C)c(F)c2)n[nH]1 (stereo not drawn) [Compound A-325] | < 10 |  | < 10
42 | COc1cccc(C(=O)N=C(Nc2cc(-c3ccc(F)cc3)n[nH]2)NC2CCCC2)c1 [Compound A-519] | < 10 | < 10 | 
43 | COC(=O)c1cccc(C(=O)/N=C(\Nc2cc(-c3ccc(F)cc3)n[nH]2)NC(C)(C)C)c1 [Compound A-342] | < 10 |  | < 10
44 | O=C(/N=C(/Nc1cc(F)cc(Cl)c1)Nc1cc(-c2ccc(F)cc2)[nH]n1)c1ccc(C(F)(F)F)cc1 [Compound A-154] | < 10 |  | < 10
45 | CC(C)(C)N/C(=N/C(=O)c1ccc(Cl)c(F)c1)Nc1cc(-c2ccccc2)[nH]n1 [Compound A-141] | < 10 |  | < 10
46 | O=C(/N=C(/NCc1ccc(F)cc1Cl)Nc1cc(-c2ccc(F)cc2)n[nH]1)c1cccc(F)c1 [Compound A-457] | < 10 |  | < 10
47 | O=C(/N=C1\Nc2cc(-c3ccc(F)cc3)nn2C[C@@H]2CCCN12)c1ccc(F)cc1 [Compound A-569, (S,E)-4-fluoro-N-(2-(4-fluorophenyl)-8,9,9a,10-tetrahydro-4H-pyrazolo[1,5-a]pyrrolo[1,2-e][1,3,5]triazepin-5(7H)-ylidene)benzamide] | > 10 | > 10 | 
48 | COc1ccc(-c2cc(N/C(=N\C(=O)c3ccc(Cl)c(F)c3)NC(C)(C)C)[nH]n2)cc1 [Compound A-467] | < 10 |  | < 10
49 | CC(C)C(C)N/C(=N/C(=O)c1ccc(C(F)(F)F)cc1)Nc1cc(-c2cc(F)cc(F)c2)n[nH]1 (stereo not drawn) [Compound A-295] | < 10 |  | < 10
50 | CC(C)(C)N/C(=N/C(=O)c1ccc(F)c(F)c1)Nc1cc(-c2ccc(CO)cc2)[nH]n1 [Compound A-159] | < 10 |  | < 10
51 | CCC(C)(C)N/C(=N/C(=O)c1ccc(Cl)cc1)Nc1cc(C(F)(F)F)[nH]n1 [Compound A-123] | < 10 | < 10 | 
52 | CC(C)(C)N/C(=N/C(=O)c1ccc(C(F)(F)F)cc1)Nc1[nH]nc(C(C)(C)C)c1F [Compound A-340] | < 10 |  | < 10
53 | O=C(/N=C(/NCc1ccc(F)c(Cl)c1)Nc1cc(C(F)F)[nH]n1)c1ccc(C(F)(F)F)cc1 [Compound A-59] | < 10 | > 10 | 
54 | Cc1cc(N/C(=N\C(=O)c2ccc(C(F)(F)F)cc2)NCC(C)(C)C)n[nH]1 [Compound A-155] | < 10 |  | < 10
55 | Cc1ccc(-c2cc(N/C(=N\C(=O)c3ccc(F)c(F)c3)NCc3ccc(F)cc3Cl)[nH]n2)cc1 [Compound A-479] | < 10 |  | < 10
56 | COCC(C)N/C(=N/C(=O)c1ccc(Cl)c(F)c1)Nc1cc(C(F)(F)F)n[nH]1 (stereo not drawn) [Compound A-120] | < 10 | < 10 | 
57 | CC(C)(C)NC(=NC(=O)c1ccc(F)c(F)c1)Nc1cc(-c2ccccc2)n[nH]1 [Compound A-435] | < 10 | < 10 | 
